According to patent publication US7323303B2, “Modified β-lactamases and uses thereof” (priority 2003, dated 2008):

Key:
Format in all cases: biochemical
[1] = target: T1, B. licheniformis penP β-lactamase (Bacillus licheniformis, UniProt P00808); assay: Drug screening: E166Cf fluorescence in presence of bacterial β-lactamase culture; parameters: key: −: Decline in fluorescence signal (presence of beta-lactam hydrolysis); +: No decline in fluorescence signal (absence of beta-lactam hydrolysis); settings: antibiotic 1.0×10^−4 M, E166Cf 1.2×10^−7 M
T1 construct: made in house; host or cells: B. subtilis 1A304 (φ105MU331); whole culture used, not purified
T1 sequence (P00808 27-307): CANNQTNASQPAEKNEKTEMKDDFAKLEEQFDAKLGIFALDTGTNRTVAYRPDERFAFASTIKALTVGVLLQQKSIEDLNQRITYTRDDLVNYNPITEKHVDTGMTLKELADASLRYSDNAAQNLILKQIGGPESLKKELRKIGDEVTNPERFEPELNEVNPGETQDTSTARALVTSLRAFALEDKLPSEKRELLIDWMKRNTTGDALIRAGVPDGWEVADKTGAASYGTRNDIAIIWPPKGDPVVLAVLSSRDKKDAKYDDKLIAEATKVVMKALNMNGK
Description: (§1) The use of the E166Cf enzyme in screening bacterial β-lactamases against various β-lactam antibiotics was investigated. The principle of our method is that when both E166Cf and bacterial β-lactamase are incubated with ‘β-lactamase-unstable’ antibiotics, the fluorescence of the E166Cf enzyme will be suppressed because of the greater catalytic efficiency of the bacterial enzyme. In contrast, when bacterial β-lactamases are screened against ‘β-lactamase-resistant’ antibiotics, the fluorescence of the E166Cf enzyme will be enhanced because of the poor hydrolytic activity of the bacterial enzyme. Thus, any β-lactam antibiotic that causes the labeled enzyme to increase its fluorescence intensity in the presence of bacterial β-lactamases can be used in clinical treatments.
(§2) The β-lactamase II, penPC β-lactamase and penP β-lactamase were expressed in B. subtilis 1A304 (φ105MU331). These enzymes were prepared according to the procedures described previously (Reference 7: Thomwell, S. J. East, A. K., Errington, J. An efficient expression and secretion system based on Bacillus subtilis phage phi 105 and its uses for the production for B. cereus β-lactamase I. (1993) Gene 133, 47-53) with slight modifications. A bacterial strain was streaked on an agar plate containing 5 μg/ml chloramphenicol, and the plate was incubated at 37° C. for 24 h. A single bacterial colony from the agar plate was inoculated into 100 ml of sterilized BHY medium (37 g/l brain heart infusion and 5 g/l yeast extract) which was then incubated at 37° C. with shaking at 300 rpm overnight. About 7 ml of overnight inoculum was added to a baffled conical flask containing 100 ml of sterilized BHY medium. The inoculated medium was incubated at 37° C. with shaking at 300 rpm. When the optical density of the bacterial culture at 600 nm reached 3.5 to 4.0, the bacterial culture was heated in a water bath at 51° C. for 5 min. Afterwards, the bacterial culture was incubated at 37° C. with shaking at 300 rpm for a further 6 h. The bacterial culture was then harvested and stored at −20° C.
(§3) Fluorescence measurements of the E166Cf enzyme in the presence of bacterial cultures and β-lactam antibiotics were performed on a FLUOstar microplate reader (BMG Labtechnologies) equipped with two sample injectors. Excitation and emission filters of 485 and 520 nm respectively were used. For B. cereus penPC β-lactamase, B. licheniformis penP β-lactamase and B. cereus β-lactamase II, the labeled enzymes were mixed with the bacterial cultures, and the mixtures were made up to 300 μl with 50 mM phosphate buffer (pH 7.0) in a 96-well microtiter plate (Corning Costar). For the purpose of comparison, B. subtilis cultures, which produced no β-lactamase, were set up as negative controls. For E. coli. TEM-1 β-lactamase, the labeled enzymes were mixed with the bacterial cultures without dilution. E. coli. cultures, which produced no β-lactamase, were set up as negative controls for comparison. The antibiotics were then added to the bacterial samples by the injectors.
(§4) The results from the time-resolved fluorescence measurements of the labeled enzyme (1.2×10^−7 M) in the presence of various bacterial cultures and β-lactam antibiotics (1.0×10^−4 M) are shown in FIGS. 23 to 26.

[2] = target: T2, B. cereus β-lactamase II (Bacillus cereus, UniProt P04190); assay: as above; parameters: key: −: Decline in fluorescence signal (presence of beta-lactam hydrolysis); +: No decline in fluorescence signal (absence of beta-lactam hydrolysis); settings: antibiotic 1.0×10^−4 M, E166Cf 1.2×10^−7 M
T2 construct: made in house; host or cells: B. subtilis 1A304 (φ105MU331); whole culture used, not purified
T2 sequence (P04190 31-257): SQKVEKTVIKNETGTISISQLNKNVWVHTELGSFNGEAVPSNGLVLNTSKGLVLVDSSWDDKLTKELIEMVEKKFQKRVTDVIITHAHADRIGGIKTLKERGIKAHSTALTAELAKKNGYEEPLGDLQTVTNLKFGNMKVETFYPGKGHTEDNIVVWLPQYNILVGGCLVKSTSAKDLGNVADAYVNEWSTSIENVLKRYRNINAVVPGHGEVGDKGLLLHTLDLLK
Description: as §1, §2, §3, §4

[3] = target: T3, B. cereus penPC β-lactamase (Bacillus cereus, UniProt P00809); assay: as above; parameters: key: −: Decline in fluorescence signal (presence of beta-lactam hydrolysis); +: No decline in fluorescence signal (absence of beta-lactam hydrolysis); settings: antibiotic 1.0×10^−4 M, E166Cf 1.2×10^−7 M
T3 construct: made in house; host or cells: B. subtilis 1A304 (φ105MU331); whole culture used, not purified
T3 sequence (P00809 28-306): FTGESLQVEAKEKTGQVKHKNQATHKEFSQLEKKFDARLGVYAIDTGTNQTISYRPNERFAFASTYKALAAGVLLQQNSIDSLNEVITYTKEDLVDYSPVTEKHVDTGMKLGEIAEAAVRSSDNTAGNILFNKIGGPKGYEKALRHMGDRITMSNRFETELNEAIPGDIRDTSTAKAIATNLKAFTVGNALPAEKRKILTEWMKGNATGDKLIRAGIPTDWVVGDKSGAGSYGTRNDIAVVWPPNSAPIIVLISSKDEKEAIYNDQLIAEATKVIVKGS
Description: as §1, §2, §3, §4

[4] = target: T4, E166Cf (fluorescein-labeled E166C mutant of β-lactamase I) (Bacillus cereus, UniProt P00809, E185C); assay: Spectrophotometric substrate hydrolysis, steady-state kinetics
T4 construct: made in house; host or cells: B. subtilis 1A304 (φ105MU331); then labelled chemically
T4 sequence (P00809 28-306 E185C): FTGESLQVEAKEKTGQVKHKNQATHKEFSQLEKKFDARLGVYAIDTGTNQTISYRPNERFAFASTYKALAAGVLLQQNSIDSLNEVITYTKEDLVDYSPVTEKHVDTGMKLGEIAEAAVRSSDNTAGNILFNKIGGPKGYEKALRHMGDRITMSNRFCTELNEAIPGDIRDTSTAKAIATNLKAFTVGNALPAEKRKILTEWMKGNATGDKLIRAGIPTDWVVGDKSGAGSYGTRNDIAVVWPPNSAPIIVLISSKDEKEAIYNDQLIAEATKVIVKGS
Description: The hydrolytic activities of the wild-type β-lactamase I, E166C and E166Cf mutants towards penicillin G, penicillin V and ampicillin (Sigma) were monitored by the spectrophotometric method. The spectrophotometric measurements were performed on a Perkin Elmer Lambda Bio20 UV/Vis spectrometer. Substrate hydrolysis was monitored at a fixed wavelength: 235 nm for ampicillin, 232 nm for penicillin G and penicillin V. The initial rate of substrate hydrolysis occurring within 5 min was determined in duplicate at each of 6 different substrate concentrations in 50 mM potassium phosphate buffer (pH 7.0) at 20° C. The initial rates determined were then treated as described in Reference 5 to calculate the Michaelis constants (Km) and turnover numbers (kcat) using non-linear regression analysis (equation 1):
[formula] where v is the initial rate of substrate hydrolysis, Vmax the maximum rate of reaction, [S] the initial substrate concentration, Km the Michaelis constant and kcat=Vmax/[Enzyme].
The measured steady-state kinetic parameters for hydrolysis of penicillin G, penicillin V and ampicillin by the wild-type β-lactamase I, E166C and E166Cf mutants are summarized in Table 1.
At high substrate concentration (1.0×10^−5 and 1.0×10^−4 M), the penicillin substrates rapidly occupy the active sites to form the ES complexes, thus switching on the fluorescence of the fluorescein labels instantaneously. […] This can be verified by the fact that the ‘plateau time’ (8 and 22 min for 1.0×10^−5 and 1.0×10^−4 M penicillin G respectively) is consistent with the ‘substrate hydrolysis time’ determined by spectrophotometric assays (7 and 20 min for 1.0×10^−5 and 1.0×10^−4 M penicillin G respectively). When most of the penicillin substrates have been hydrolyzed to carboxylic acids, the fluorescence signal of the labeled enzyme will decline subsequently.

[5] = E166Cf, 50 mM potassium phosphate buffer pH 7.0, 20° C.

Which results are given for CC1(C)S[C@@H]2[C@H](NC(=O)Cc3ccccc3)C(=O)N2[C@H]1C(=O)O [Penicillin G, penicillin G]?
fluorescence signal of E166Cf (beta-lactam hydrolysis) [1]: −; fluorescence signal of E166Cf (beta-lactam hydrolysis) [2]: −; fluorescence signal of E166Cf (beta-lactam hydrolysis) [3]: −; substrate hydrolysis time determined by spectrophotometric assays ([4]; 1.0×10^−4 M antibiotic): 20 min; substrate hydrolysis time determined by spectrophotometric assays ([4]; 1.0×10^−5 M antibiotic): 7 min; Km [4, 5]: 213 ± 11 µM; kcat [4, 5]: 5.28 ± 0.09 s⁻¹
